pIC50: −log10 of the molar value.
Target: T1, human PDE4B1 (Homo sapiens, UniProt Q07343)
T1 construct: host or cells: Sf9 cells
Assay: cAMP HTRF assay to determine the activity of hPDE4B1
Type: biochemical
Settings: for inhibition at 1 µM: Percentage inhibition of PDE4B at 1 μM test concentration; for pIC50: dose response measurements with eight concentrations, reported as ranges, read-out: IC50
Method in brief: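 Sf9-expressed recombinant human PDE4B1 (4.8 U) in Tris-HCl/MgCl2/DTT/Tween 20 buffer pH 7.8, with cAMP at 40 nM final, 30 min at room temperature. Reaction stopped with IBMX 1 mM; remaining cAMP detected by HTRF (665/620 nm ratio). IC50 from eight-point dose-response, n=2.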

T1 sequence (Q07343 whole entry): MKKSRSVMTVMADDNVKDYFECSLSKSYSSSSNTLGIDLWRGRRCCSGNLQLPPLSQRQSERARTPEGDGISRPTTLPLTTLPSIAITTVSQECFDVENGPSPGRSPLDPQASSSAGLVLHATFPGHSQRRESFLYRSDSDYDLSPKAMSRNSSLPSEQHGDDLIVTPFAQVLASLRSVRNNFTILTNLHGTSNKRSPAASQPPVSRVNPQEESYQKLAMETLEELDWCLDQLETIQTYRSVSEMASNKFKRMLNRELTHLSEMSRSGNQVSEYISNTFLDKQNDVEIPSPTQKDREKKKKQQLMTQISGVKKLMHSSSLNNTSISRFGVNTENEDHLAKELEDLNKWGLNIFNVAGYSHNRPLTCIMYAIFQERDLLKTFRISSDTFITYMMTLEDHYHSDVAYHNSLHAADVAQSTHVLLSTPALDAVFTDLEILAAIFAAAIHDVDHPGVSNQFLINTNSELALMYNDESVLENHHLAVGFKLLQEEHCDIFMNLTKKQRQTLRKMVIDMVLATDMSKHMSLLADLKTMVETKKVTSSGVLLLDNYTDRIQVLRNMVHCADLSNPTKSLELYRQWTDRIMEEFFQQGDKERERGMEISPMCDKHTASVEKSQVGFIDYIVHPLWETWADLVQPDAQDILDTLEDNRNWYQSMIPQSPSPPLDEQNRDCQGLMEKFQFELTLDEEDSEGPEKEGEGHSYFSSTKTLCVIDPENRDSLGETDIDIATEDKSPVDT

SMILES	inhibition at 1 µM [%]	pIC50
CC(C)NC(=O)COc1ccc2c(c1)N(c1nc(-c3ccc(Cl)s3)nc3c1CCC3)CC2 [Compound No. 2-66, 2-((1-(2-(5-Chlorothiophen-2-yl)-6,7-dihydro-5H-cyclopenta[d]pyrimidin-4-yl)indolin-6-yl)oxy)-N-isopropylacetamide]	32	–
CN(CC1CC1)C(=O)COc1ccc2c(c1)N(c1nc(-c3ccc(Cl)s3)nc3c1CCC3)CC2 [Compound No. 2-67, 2-((1-(2-(5-Chlorothiophen-2-yl)-6,7-dihydro-5H-cyclopenta[d]pyrimidin-4-yl)indolin-6-yl)oxy)-N-(cyclopropylmethyl)-N-methylacetamide]	6	–
CCNC(=O)COc1ccc2c(c1)N(c1nc(-c3ccc(Cl)s3)nc3c1CCC3)CC2 [Compound No. 2-68, 2-((1-(2-(5-Chlorothiophen-2-yl)-6,7-dihydro-5H-cyclopenta[d]pyrimidin-4-yl)indolin-6-yl)oxy)-N-ethylacetamide]	2	–
O=C(COc1ccc2c(c1)N(c1nc(-c3ccc(Cl)s3)nc3c1CCC3)CC2)NCCO [Compound No. 2-69, 2-((1-(2-(5-Chlorothiophen-2-yl)-6,7-dihydro-5H-cyclopenta[d]pyrimidin-4-yl)indolin-6-yl)oxy)-N-(2-hydroxyethyl)acetamide]	4	–
NC(=O)COc1ccc2c(c1)N(c1nc(-c3ccc(Cl)s3)nc3c1CCC3)CC2 [Compound No. 2-71, 2-((1-(2-(5-Chlorothiophen-2-yl)-6,7-dihydro-5H-cyclopenta[d]pyrimidin-4-yl)indolin-6-yl)oxy)acetamide]	14	–
CN(C)C(=O)COc1ccc2cnn(-c3nc(-c4ccc(Cl)s4)nc4c3C[S+]([O-])C4)c2c1 (centres unmarked) [Compound No. 2-72, 2-((1-(2-(5-Chlorothiophen-2-yl)-6-oxido-5,7-dihydrothieno[3,4-d]pyrimidin-4-yl)-1H-indazol-6-yl)oxy)-N,N-dimethylacetamide]	102	> 7.00

Results, then the compound that gave them:

inhibition at 1 µM [%]	pIC50	SMILES
76	6.00 to 7.00	NC(=O)COc1ccc2c(c1)N(c1nc(-c3ccc(Cl)s3)nc3c1CS(=O)(=O)C3)CC2 [Compound No. 2-59, 2-((1-(2-(5-Chlorothiophen-2-yl)-6,6-dioxido-5,7-dihydrothieno[3,4-d]pyrimidin-4-yl)indolin-6-yl)oxy)acetamide]
75	6.00 to 7.00	O=C(COc1ccc2c(c1)N(c1nc(-c3ccc(Cl)s3)nc3c1CS(=O)(=O)C3)CC2)NC1COC1 [Compound No. 2-60, 2-((1-(2-(5-Chlorothiophen-2-yl)-6,6-dioxido-5,7-dihydrothieno[3,4-d]pyrimidin-4-yl)indolin-6-yl)oxy)-N-(oxetan-3-yl)acetamide]
60	> 7.00	O=C(COc1ccc2c(c1)N(c1nc(-c3ccc(Cl)s3)nc3c1CS(=O)(=O)C3)CC2)NC1CC1 [Compound No. 2-61, 2-((1-(2-(5-Chlorothiophen-2-yl)-6,6-dioxido-5,7-dihydrothieno[3,4-d]pyrimidin-4-yl)indolin-6-yl)oxy)-N-cyclopropylacetamide]
65	6.00 to 7.00	CN(C(=O)COc1ccc2c(c1)N(c1nc(-c3ccc(Cl)s3)nc3c1CCC3)CC2)C1CC1 [Compound No. 2-64, 2-((1-(2-(5-Chlorothiophen-2-yl)-6,7-dihydro-5H-cyclopenta[d]pyrimidin-4-yl)indolin-6-yl)oxy)-N-cyclopropyl-N-methylacetamide]
5	–	O=C(COc1ccc2c(c1)N(c1nc(-c3ccc(Cl)s3)nc3c1CCC3)CC2)NC1COC1 [Compound No. 2-65, 2-((1-(2-(5-Chlorothiophen-2-yl)-6,7-dihydro-5H-cyclopenta[d]pyrimidin-4-yl)indolin-6-yl)oxy)-N-(oxetan-3-yl)acetamide]
23	–	CNC(=O)COc1ccc2c(c1)N(c1nc(-c3ccc(Cl)s3)nc3c1CCC3)CC2 [Compound No. 2-70, 2-((1-(2-(5-Chlorothiophen-2-yl)-6,7-dihydro-5H-cyclopenta[d]pyrimidin-4-yl)indolin-6-yl)oxy)-N-methylacetamide]

— patent US9527832B2, “Substituted condensed pyrimidine compounds” (GRÜNENTHAL GMBH, priority 2013, dated 2016)
